Tests used:
[1] = system: FGF9 induced ERK phosphorylation in Human RT112 bladder carcinoma cells; assay: FGF9 induced p-ERK with BSA in RT112 cells; conditions: RT-112, read-out: IC50 FGF9 induced p-ERK
Procedure: FGF9 Induced p-ERK with BSA
This yielded a 10 point dose-response curve ranging from 10-0.005 μM in 1% DMSO. The incubation is continued for 1 hour at 37° C. […] Cells are fixed by the addition of 30 μL of a 25% formaldehyde solution in phosphate buffered saline (PBS) (3.7% formaldehyde final concentration), and incubated 30 minutes at RT. Cells are washed 3× with PBS, followed by the addition of 100 μL of cold methanol and incubated for 30 minutes at −20° C. The methanol is removed and the cells are treated with PBS containing 0.1% TRITON® X-100(PBST), washed 3× with PBS, and incubated 15 minutes at RT.

[2] = system: FGF receptor 1 (bFGF induced ERK phosphorylation in HUVEC); assay: AlphaScreen SureFire Detection of ERK phosphorylation (Thr202/Tyr204) in HUVEC; conditions: Homo sapiens, read-out: IC50 b-FGF induced ERK phosphorylation (Thr202/Tyr204)
Procedure: AlphaScreen SureFire Detection of ERK Phosphorylation (Thr202/Tyr204) in Human Umbilical Vein Endothelial Cells (HUVEC)
The effect of compound on the inhibition of FGF receptor 1 is measured by monitoring the phosphorylation of ERK (pERK) in response to basic-Fibroblast growth factor (b-FGF) stimulation in Human Umbilical Endothelial cells (HUVEC). […] This is a homogeneous assay format utilizing the immuno-sandwich capture of the phosphorylated analyte followed by detection using antibody-coated ALPHASCREEN® beads (Perkin Elmer) to generate an amplified signal.
For the assay, cells are harvested by standard procedures and then counted. […] Plates are incubated overnight at 37° C., 5% CO2.
On the day of the assay, cells are serum starved in 100 μL EBM (endothelial cell basal) medium containing 1.5% FBS and 20 mg/mL BSA for 3 hours at 37° C., 5% CO2, then treated with 20 μM of 3× serially diluted compound in starvation medium for 1 hour at 37° C. This yielded a 10 point concentration-response curve ranging from 10-0.005 μM in 1% DMSO. After 1 hour compound treatment, cells are stimulated with 50 μL b-FGF (Sigma, F0291, final b-FGF concentration 50 ng/mL) at 37° C. for 15 minutes. In the wells containing cells and 50 μL stimulator b-FGF yields MAX signal, and cells with 10 μM positive control compound and 50 μL stimulator b-FGF as MIN. […]

SMILES: C[C@@H](Oc1ccc2[nH]nc(/C=C/c3cnn(CCO)c3)c2c1)c1c(Cl)cncc1Cl [Preparation 10, (R)-(E)-2-(4-(2-(5-(1-(3,5-Dichloropyridin-4-yl)ethoxy)-1H-indazol-3-yl)vinyl)-1H-pyrazol-1-yl)ethanol]
- IC50 [1]: 0.4 nM
- IC50 [2]: 0.6 nM
